The structures appear in SMILES notation.

Data set [1] concerns ENR+CD organoids (ISC to Paneth cell differentiation). The data set can be described thus: Primary screen: basal (non-stimulated) lysozyme secretion LYZ.NS, 2.5-D 384-well ENR+CD organoid differentiation. It is filed as cell-based, mouse. The conditions noted are these: for Dose.FC.LYZ.NS (log2 fold change) / Z.LYZ.NS (standard z score): primary screen. From the text:
High-throughput screening.

In data set [2] the test system is Paneth cells in ENR+CD organoids. The data set can be described thus: Flow cytometry of 3D-cultured intestinal organoids, Paneth cells (lysozyme-positive, CD24-positive). Format: cell-based, mouse. From the text:
Flow cytometry analysis (3D culture). ISC-enriched organoids cultured in 3D Matrigel with ENRCV media were passaged to 24-well plate in 3D Matrigel with ENRCV. At day zero, media were replaced to ENRCD with or without indicated compounds, and media were replaced every other day. At day six, cells were washed with basal media, and then harvested from Matrigel by mechanical disruption in TrypLE Express (ThermoFisher, 12605010) to remove Matrigel and dissociate organoids to single cells. After vigorous pipetting and incubation at 37° C. for 20 min, dissociated organoids were strained through a 35 μm cell strainer into a tube (Falcon, 352235). […] Cell pellets were resuspended in FACS buffer (2% FBS in PBS), and then transferred to an ultra low-bind 96-well plate (Corning, 7007). Cells were stained with Zombie-violet viability dye (BioLegend, 423107) at 100× for viability staining and/or antibody staining solution. FITC-conjugated antibody for lysozyme (Dako, F0372) and APC-conjugated antibody for CD24 (BioLegend, 138505) were used at 100× dilution. Flow cytometry was performed using an LSR Fortessa (BD; Koch Institute Flow Cytometry Core at MIT). The data were analyzed using FlowJo v10 software.
The results of primary and secondary screening reflect a mixture of potential effects arising from small molecule treatment which may result in increases in total LYZ secretion. This includes contributions from enhanced Paneth cell differentiation, altered Paneth cell activity and changes in total cell number concurrent with differentiation. To better inform how the 6 compounds identified in the screen increased total secreted LYZ, and to isolate only those which enhance Paneth differentiation robustly, Applicants next utilized flow cytometry to measure the changes in Paneth cell representation within the treated organoids. […] Single live cells were selected by several gating strategies and Paneth cells were identified as lysozyme-high, CD24-mid, side scatter-high (SSC-high) (FIG. 27E). […] To evaluate whether the culture media supplements C and D may alter the effects of the 6 hits, Applicants also performed lysozyme assay in the canonical ENR culture condition in 3-D (because Paneth cells exist in an immature state within ENR, Applicants were unable to robustly quantify Paneth cell number via flow cytometry).
Flow cytometry. ISC-enriched organoids in 3D Matrigel culture were passaged to a 48-well plate and induced differentiation for 6 days by ENR+CD media containing DMSO or each drug indicated in the figures. DMSO- or drug-containing media were changed every other day. On day 6, cells were washed twice with basal media, then harvested from Matrigel by the mechanical disruption in TrypLE Express (Thermo, #12605010) to remove Matrigel and dissociate organoids to single cells. After vigorous pipetting and incubation at 37° C. for 15 min, the cell solution was diluted twice with basal media and centrifuged at 300 ref for 3 min. The cell pellet was resuspended in FACS buffer (PBS containing 2% FBS) and replaced into a 96-well Clear Round Bottom Ultra-Low Attachment Microplate (Corning, #7007). The cell solution was centrifuged again at 300 rcf for 3 min at 4° C. to pellet the cells. Cells were stained with Zombie-violet dye (BioLegend, #423113) at 100× for viability staining for 20 min at RT in the dark. After centrifugation for 3 min at 300 rcf, cells were fixed in fixation buffer (FACS buffer containing 1% formaldehyde (Thermo, #28906)) for 15 min on ice in the dark. Cells were centrifuged again for 3 min at 300 rcf and blocked with staining buffer (FACS buffer containing 0.5% Tween20 (Sigma, P2287)) for 15 min at RT in the dark. Pelleted cells by the centrifugation for 3 min at 300 rcf are stained with FITC-conjugated anti-lysozyme antibody (Dako, F0372) and APC-conjugated anti-CD24 antibody (Biolegend, #138505) at 100× for 45 min at RT in the dark.

Data set [3] in a line: Animal study: oral gavage every other day for two weeks, body weight. Format: in vivo, mouse. As for the experimental part:
Following a similar protocol as previously reported for SINE treatment in the context of cancer (Arango et al., 2017; Azmi et al., 2013; Hing et al., 2016; Zheng et al., 2014), KPT-330 was administered at a dose 10 mg/kg via oral gavage every other day over a two-week span in C57BL/6 wild-type mice, and body weight was monitored for any clear toxicity. […] Given animal weight loss on the standard chemotherapeutic dosage regimen, and additional evidence that sustained dosage of SINEs adversely impacts T cell populations (Tyler et al., 2017), Applicants sought to explore dosing regimens well below 10 mg/kg, to see if a pro-Paneth phenotype may exist below potential toxicities. […] Applicants tracked animal weight every other day, and at day 14 collected the proximal and distal thirds of the small intestine for histological quantification of Paneth, stem, and goblet populations (FIG. 26A). […] Paneth cells were counted within well preserved crypts, with at minimum 30 crypts quantified per animal (representative images FIG. 30C) and then averaged to get mean Paneth cells per crypt in distal and proximal thirds of the small intestine. […] Applicants additionally quantified the abundance of Olfm4+ stem cells as well as PAS+ goblet cells within the same animals to ascertain whether the effect of SINE treatment was restricted to the Paneth cell compartment (representative images FIG. 30D,E). […]

[4] abbreviates: 2-day treatment within 6-day ENR+CD differentiation, read at day 6.

Turning to `O=C(/C=C\n1cnc(-c2cc(C(F)(F)F)cc(C(F)(F)F)c2)n1)NNc1cnccn1` [KPT-330], in data set [1] (LYZ.NS and LYZ.S, 0.08-10 uM, 6 days ENR+CD), the “primary screen hit call (SSMD and z-scored FC cutoffs in both LYZ assays)” value was “sole hit in their respective pathway”. Also, the “Dose.FC.LYZ.NS (log2 fold change)” value is listed as 0.200 in data set [1] (dose 0.08 uM), −0.266 in data set [1] (dose 0.40 uM), −0.280 in data set [1] (dose 2.00 uM) and −0.284 in data set [1] (dose 10.00 uM). For the same compound, the “Z.LYZ.NS (standard z score)” value was 1.745 in data set [1] (dose 0.08 uM), −2.317 in data set [1] (dose 0.40 uM), −2.439 in data set [1] (dose 2.00 uM) and −2.470 in data set [1] (dose 10.00 uM). The “enrichment in mature Paneth cells, treatment day 0-2” value in data set [2] (setting [4]) was “greatest enrichment in mature Paneth cells”. The “enrichment in mature Paneth cells, treatment day 2-4” value in data set [2] (setting [4]) is “moderate enrichment”. Moreover, the “enrichment in mature Paneth cells, treatment day 4-6 (by flow cytometry)” value in data set [2] (setting [4]) is on record as “no different than untreated”. In data set [2] (ENR+CD + KPT-330 vs control), the “increase in mature Paneth cells at day 6 of differentiation” value is recorded as 2 fold. Besides, in data set [2] (most potent dose from 2.5-D screening, ENR+CD 6 days, 3-D culture), the “mature Paneth cell population within organoids” value was “significantly enhanced the mature Paneth cell population”. In addition, the body weight entry in data set [3] (10 mg/kg oral gavage every other day) was “significant weight loss”; in data set [3] (0.2, 0.05 and 0.01 mg/kg oral gavage every other day) it was “no significant changes in animal weight at any dose”.

The values above are taken from patent publication US20220323406A1, “METHODS AND COMPOSITIONS FOR DIFFERENTIATING STEM CELLS” (Massachusetts Institute of Technology, priority 2019, published 2022).
